PMC10674446, “Synthesis and Structural Characterization of Novel Dimers of Dipyridothiazine as Promising Antiproliferative Agents” (Molecules, 2023)
Like-named read-outs stand apart in the source and are kept apart here.

Tests used:
MCF7 breast cancer = assay: MTT cell viability assay, MCF7; format: cell-based, human; settings: for Selectivity Index (SI), MCF-7: SI = IC50 L6 / IC50 MCF-7; for IC50: mean ± SD, n = 3, read-out: Anticancer Activity IC50, MCF-7
Protocol: (§1) MCF7, SW480 and normal L6 muscle cells were bought from the ATCC company, USA [34]. MCF7 and SW480 adenocarcinoma cell lines were cultured, respectively, using Dulbecco’s Modified Eagle Medium (DMEM with 4.5 g/L glucose; HIMEDIA, Mumbai, India) supplemented with 100 U/mL penicillin, 100 µg/mL of streptomycin and 10% fetal bovine serum (FBS; Cat No. FBSEU500; Tico Europe, Amstelveen, The Netherlands) under standard conditions until the desired confluency was reached. Once the desired cell confluency of 70–80% was observed, the cells were sub-cultured through trypsinization, and the cell count was calculated prior to seeding in the 96-well microplate. Similarly, L6 rat myoblasts were cultured accordingly as normal cell lines to compare against MCF7 and SW480 cell lines during the MTT cell viability assay.
(§2) Cells were seeded in a 96-well microplate at a density of 1 × 10^4 cells per well and were allowed to adhere to the wells overnight. […] The cells were exposed to the tested substances at concentrations ranging from 50, 25, 10, 5 and 1 μM. The treatment was conducted over three periods of 24 h, 48 h and 72 h, respectively. […] Lastly, the spent MTT medium was removed and DMSO was added to the wells, where the purple formazan crystals were solubilized, and the intensity of the purple hue was spectrophotometrically measured at 570 nm.
(§3) All values were represented as means ± standard deviations (n = 3). […] The IC50 values were further subjected to one-way ANOVA analysis along with the post hoc test to determine the statistical significance between the treatment groups and the negative control (untreated cells).

SW480 colon cancer = assay: MTT cell viability assay, SW480; format: cell-based, human; settings: for IC50: mean ± SD, n = 3, read-out: Anticancer Activity IC50, SW480; for Selectivity Index (SI), SW480: SI = IC50 L6 / IC50 SW480
Protocol: as §1, §2, §3

normal L6 rat myoblasts = assay: MTT cell viability assay, normal L6 cells; format: cell-based; settings: mean ± SD, n = 3, read-out: Anticancer Activity IC50, L6
Protocol: as §1
(§4) Cells were seeded in a 96-well microplate at a density of 1 × 10^4 cells per well and were allowed to adhere to the wells overnight. Subsequently, the cells were treated with varying concentrations of 12 compounds (1a,b,c–4a,b,c) along with doxorubicin as the positive control. The cells were exposed to the tested substances at concentrations ranging from 50, 25, 10, 5 and 1 μM. The treatment was conducted over three periods of 24 h, 48 h and 72 h, respectively. After the treatment period, thiazolyl blue tetrazolium bromide (MTT) solution was added to each well at a concentration of 0.5 mg/mL and incubated for 3 h in a 37 °C incubator supplemented with 5% CO2. Lastly, the spent MTT medium was removed and DMSO was added to the wells, where the purple formazan crystals were solubilized, and the intensity of the purple hue was spectrophotometrically measured at 570 nm.
(§5) All values were represented as means ± standard deviations (n = 3). The data were statistically analyzed using GraphPad Prism 10.1.0, where the IC50 values of each compound treated on different cell lines at different time points were obtained by extrapolating the logarithmic dose–response curve. The IC50 values were further subjected to one-way ANOVA analysis along with the post hoc test to determine the statistical significance between the treatment groups and the negative control (untreated cells).

[1] = test system: MCF7 and SW480 cancer cells; assay: MTT cell viability assay, both cancer cell lines; format: cell-based, human; settings: for cytotoxicity towards MCF7 compared with SW480 (in words): breast cancer cell line MCF7 versus colon cancer cell line SW480; for toxicity towards both MCF7 and SW480 cancer cells (in words): 24, 48 and 72 h of incubation; for IC50: Homo sapiens, MCF7 and SW480, span over 24, 48 and 72 h, read-out: IC50 range towards both cancer cell lines
Protocol: as §1, §4, §5

[2] = 72 h treatment period, NA = IC50 beyond the tested concentration range (1-50 µM)
[3] = Homo sapiens, MCF7, 24 h treatment period
[4] = Homo sapiens, MCF7, 48 h treatment period
[5] = Homo sapiens, MCF7, 72 h treatment period, NA = IC50 beyond the tested concentration range (1-50 µM)
[6] = Homo sapiens, SW480, 24 h treatment period
[7] = Homo sapiens, SW480, 48 h treatment period
[8] = Homo sapiens, SW480, 72 h treatment period
[9] = Rattus norvegicus, Myoblast, 24 h treatment period
[10] = Rattus norvegicus, Myoblast, 48 h treatment period
[11] = Rattus norvegicus, Myoblast, 72 h treatment period

| Compound | Selectivity Index (SI), MCF-7 (MCF7 breast cancer; 24 h) | Selectivity Index (SI), MCF-7 (MCF7 breast cancer; 48 h) | Selectivity Index (SI), MCF-7 (MCF7 breast cancer; 72 h) | Selectivity Index (SI), SW480 (SW480 colon cancer; 48 h) | Selectivity Index (SI), SW480 (SW480 colon cancer; 72 h) | Selectivity Index (SI), SW480 (SW480 colon cancer; 24 h) | IC50 (MCF7 breast cancer; [3]) [µM] | IC50 (MCF7 breast cancer; [4]) [µM] | IC50 (MCF7 breast cancer; [5]) [µM] | melting point [°C] | IC50 (SW480 colon cancer; [6]) [µM] | IC50 (SW480 colon cancer; [7]) [µM] | IC50 (SW480 colon cancer; [8]) [µM] | IC50 (normal L6 rat myoblasts; [9]) [µM] | IC50 (normal L6 rat myoblasts; [10]) [µM] | IC50 (normal L6 rat myoblasts; [11]) [µM] | other results |
| --- | --- | --- | --- | --- | --- | --- | --- | --- | --- | --- | --- | --- | --- | --- | --- | --- | --- |
| 1,4-bis((dipyrido[2,3-b:2′,3′-e][1,4]thiazin-10-yl)methyl)benzene [3b] | 1.09 | 0.81 | 1.17 | 1.07 | 1.15 | – | – | – | – | – | – | – | – | – | – | – | IC50 (MCF7 breast cancer; 24 h treatment period): 19 ± 1.23 µM; IC50 (MCF7 breast cancer; 48 h treatment period): 28 ± 0.65 µM; IC50 (MCF7 breast cancer; [2]): 18.89 ± 0.15 µM; IC50 (SW480 colon cancer; 24 h treatment period): 24.5 ± 0.26 µM; IC50 (SW480 colon cancer; 48 h treatment period): 21.19 ± 0.14 µM; IC50 (SW480 colon cancer; 72 h treatment period): 19.3 ± 0.12 µM; IC50 (normal L6 rat myoblasts; 24 h treatment period): 20.8 ± 0.28 µM; IC50 (normal L6 rat myoblasts; 48 h treatment period): 22.7 ± 0.29 µM; IC50 (normal L6 rat myoblasts; 72 h treatment period): 22.15 ± 0.22 µM |
| 1,4-bis((dipyrido[2,3-b:2′,3′-e][1,4]thiazin-10-yl)methyl)benzene [4b] | 1.23 | 1.27 | 0.45 | 1.16 | 0.54 | 1.21 | – | – | – | – | – | – | – | – | – | – | IC50 (MCF7 breast cancer; 24 h treatment period): 29.7 ± 1.33 µM; IC50 (MCF7 breast cancer; 48 h treatment period): 24.24 ± 0.17 µM; IC50 (MCF7 breast cancer; [2]): 25.6 ± 0.35 µM; IC50 (SW480 colon cancer; 24 h treatment period): 29.1 ± 0.37 µM; IC50 (SW480 colon cancer; 48 h treatment period): 26.4 ± 0.74 µM; IC50 (SW480 colon cancer; 72 h treatment period): 21.41 ± 0.21 µM; IC50 (normal L6 rat myoblasts; 24 h treatment period): 36.7 ± 1.03 µM; IC50 (normal L6 rat myoblasts; 48 h treatment period): 30.8 ± 0.93 µM; IC50 (normal L6 rat myoblasts; 72 h treatment period): 11.6 ± 0.47 µM |
| c1ccc(CN2c3cccnc3Sc3cccnc32)c(CN2c3cccnc3Sc3cccnc32)c1 [1a, 1,2-bis((dipyrido[2,3-b:2′,3′-e][1,4]thiazin-10-yl)methyl)benzene] | 2.62 | 2.69 | 2.15 | 0.93 | 0.92 | 0.94 | 7.85 ± 1.67 | 7.12 ± 0.42 | 7.49 ± 1.13 | 265 to 267 | 21.8 ± 0.36 | 20.5 ± 0.79 | 17.5 ± 0.5 | 20.6 ± 0.29 | 19.1 ± 1.08 | 16.1 ± 0.42 | cytotoxicity towards MCF7 compared with SW480 (in words) [1]: higher cytotoxicity |
| c1cnc2c(c1)Sc1ncccc1N2Cc1ccc(CN2c3cccnc3Sc3cccnc32)cc1 [1b, 1,4-bis((dipyrido[2,3-b:2′,3′-e][1,4]thiazin-10-yl)methyl)benzene] | 1.38 | 0.12 | 1.22 | 0.1 | 0.59 | 0.55 | 11.6 ± 0.15 | 15.9 ± 0.83 | 9.6 ± 0.46 | – | 28.7 ± 1.28 | 20.7 ± 1.22 | 19.8 ± 1.21 | 16 ± 0.36 | 1.92 ± 1.39 | 11.7 ± 0.59 | cytotoxicity towards MCF7 compared with SW480 (in words) [1]: higher cytotoxicity |
| c1cc(CN2c3cccnc3Sc3cccnc32)nc(CN2c3cccnc3Sc3cccnc32)c1 [1c, 2,6-bis((dipyrido[2,3-b:2′,3′-e][1,4]thiazin-10-yl)methyl)pyridine] | 2.25 | 3.56 | 5.5 | 0.67 | 1.5 | 16.5 | 5 ± 1.29 | 0.75 ± 1.85 | 1.14 ± 0.51 | 245 to 247 | 0.67 | 3.97 ± 1.27 | 4.27 ± 0.19 | 11.3 ± 0.99 | 2.67 ± 2.13 | 6.82 ± 1.24 | toxicity towards both MCF7 and SW480 cancer cells (in words) [1]: significantly toxic; IC50 [1]: 0.67 to 5 µM |
| c1ccc(CN2c3cnccc3Sc3cccnc32)c(CN2c3cnccc3Sc3cccnc32)c1 [2a, 1,2-bis((dipyrido[3,2-b:3′,4′-e][1,4]thiazin-10-yl)methyl)benzene] | 3.5 | 1.83 | 1.59 | 2.03 | 1.75 | 2.32 | 6.27 ± 0.95 | 9.65 ± 0.63 | 8.16 ± 0.97 | 260 to 261 | 9.68 ± 0.17 | 8.74 ± 0.03 | 7.433 ± 0.02 | 22.1 ± 1.42 | 17.7 ± 0.27 | 13 ± 1.32 | toxicity towards both MCF7 and SW480 cancer cells (in words) [1]: significantly toxic; IC50 [1]: 6.27 to 9.68 µM |
| c1cc(CN2c3ccncc3Sc3ccncc32)nc(CN2c3ccncc3Sc3ccncc32)c1 [3c, 2,6-bis((dipyrido[3,4-b:3′,4′-e][1,4]thiazin-10-yl)methyl)pyridine] | 3.25 | 2.42 | 1.41 | 0.94 | 1.37 | 2.19 | 15 ± 0.73 | 11.7 ± 0.38 | 25.2 ± 1.74 | 245 to 247 | 22.3 ± 0.93 | 28.8 ± 1.55 | 25.9 ± 0.84 | 48.98 ± 0.33 | 28.4 ± 0.37 | 35.53 ± 0.04 | – |
| c1ccc(CN2c3ccncc3Sc3ncccc32)c(CN2c3ccncc3Sc3ncccc32)c1 [4a, 1,2-bis((dipyrido[2,3-b:4′,3′-e][1,4]thiazin-5-yl)methyl)benzene] | 1.10 | 0.68 | 0.75 | 0.95 | 0.61 | 1.56 | 32.7 ± 2.31 | 33.8 ± 1.46 | 19.9 ± 2.36 | 302 to 303 | 23 ± 1.22 | 24.1 ± 0.66 | 24.4 ± 0.83 | 35.9 ± 0.57 | 22.9 ± 1.39 | 14.9 ± 1.15 | – |
| COc1cccc2c1C(=O)c1c(O)c3c(c(O)c1C2=O)C[C@@](O)(C(=O)CO)C[C@@H]3O[C@H]1C[C@H](N)[C@H](O)[C@H](C)O1 [Doxorubicin, reference compound] | 0.41 | 0.25 | – | 0.63 | 0.28 | 0.85 | 28.4 ± 0.36 | 24.6 ± 2.37 | – | – | 13.46 ± 0.11 | 10.44 ± 0.1 | 10.77 ± 0.07 | 11.5 ± 0.68 | 6.62 ± 0.18 | 3.07 ± 0.38 | – |
